How the values were obtained:
[1] = tested on: murine melanome cell line B16-F10; experiment: melanin synthesis, colorimetric assay, basal and after α-MSH; assay type: cell-based; conditions: Mus musculus, alpha MSH 1 μM, read-out: inhibition of alpha MSH activity (melanin increase)
Procedure: The modulating effect of unsaturated fatty hydroxy acid derivatives on melanogenesis was analysed. To do this, measurement of melanin synthesis by colorimetric assay was performed on a murine melanome cell line: line B16-F10.
The effect of products was investigated in a basal situation and after stimulation by α-MSH in order to determine depigmenting capacity.
Levels of extracellular and intracellular melanin were measured by spectrophotometry at a wavelength of 405 nm according to the protocol described by Anob et al., 1999. The amount of pigment was determined using a standard melanin range and analysis on Microwin software (Berthold Biotechnologies). A total protein assay was carried out for intracellular melanin samples by means of the BCA-Copper method at 540 nm. The standard range was made up using standard protein BSA (Bovine Serum Albumin).

[2] = tested on: intracellular AOSs, fibroblast line L929; experiment: in vitro assay of intracellular AOSs (H2DCF-DA probe) after H2O2/iron oxidative stress; assay type: cell-based, murin; conditions: Mus musculus, pre-incubation 3 h, L929, read-out: Percentage inhibition of the intracellular production of AOS; for inhibition at 0.0002 µg/mL: 0.2 ng/ml
Source text: We set up an in vitro study model of oxidative stress induced by H2O2/iron as H2O2 generates huge amounts of intracellular AOSs as a result of a chain reaction triggered by oxidation of membrane lipids.
This technique is based on the use of a fluorescent probe, 6-carboxy-2′,7′-dichlorodihydro fluorescein diacetate, di (acetoxymethyl ester) (H2DCF-DA) which once it penetrates into the cell is deacetylated by intracellular esterases and thus forms H2DCF. This product is oxidized by intracellular AOSs into a highly fluorescent compound: 2′,7′-dichlorofluorescein (DCF) (Suematsu M et al., 1996, Free Radicals Practical Approach, Punchard ed. P 83-99).
The materials and methods used for in vitro assay of intracellular AOSs are given below. • a) Cell tool • Cutaneous murin fibroblast cell line L929. • b) Materials • 96 well flat based microplate. • Cytofluor II cytofluorameter: Ref. PERCEPTIVE BIOSYSTEMS. • c) Reagents • Cell culture reagents: • Dulbecco's Modified Eagle Medium as the culture medium (DMEM) • Foetal calf serum • Phosphate buffer PBS pH 7.4 • Trypsin EDTA (1X) Fluorescent probe • 6-carboxy-2′,7′-dichlorodihydrofluorescein diacetate, di(acetoxymethyl ester) (PM.675,43) Cell stimulation products • Hydrogen peroxide (H2O2) 3% Ref. GIFRER (Gifrer Barbezat Laboratory) • Ferrous ammonium sulphate (Fe^2+) • Ferric ammonium sulphate (Fe^3+) • d) Products tested:
For the evaluation of unsaturated fatty hydroxy acid derivatives, the dilutions are prepared in freshly prepared culture medium for a concentration range of 0.02, 0.2, 2 and 20 ng/ml. • e) Protocol. Cell culturing.
Cells from the fibroblast line L929 were cultured in 96-well flat base microplates in 100 μl of DMEM supplemented with 10% foetal calf serum. These were incubated overnight at 37° C. in a humid atmosphere at 5% CO2. The blank plate without cells was evaluated using 6 wells.
Dilutions of the products to be tested and reference molecule were made up in culture medium without foetal calf serum then deposited in 7 wells at a rate of 100 μl per well.
Cells were then incubated for 3 hours at 37° C. in a humid atmosphere at 5% CO2.
Cells were rinsed in PBS 1X at a rate of 100 μl per well. They were then incubated for 30 minutes at 37° C. in a humid atmosphere at 5% CO2 with 50 μl of the H2DCF-DA probe at 5 μM.
After 30 minutes of contact with the probe alone, cells were incubated for 30 minutes at 37° C. in a humid atmosphere at 5% CO2 with the addition of 25 μl of H2O2 at 800 μM and 25 μl of ferrous iron and ferric iron solution at 8 mM in order to obtain final concentrations of 200 μM of H2O2 and 2 mM of ferrous iron and ferric iron.
Cells were then rinsed with PBS 1X at a rate of 100 μl per well then incubated for 30 minutes at 37° C. in a humid atmosphere at 5% CO2 with 100 μl of PBS 1X.
This incubation for 1 h 30 minutes at 37° C. allows intracellular esterases to deacetylate the probe into H2DCF which can be oxidized by the intracellular AOSs into DCF: a fluorescent compound whose formation is proportional to the quantity of intracellular AOSs.
The intensity of fluorescence is read on a cytofluorimeter at λexcitation=485 nm and λemission=530 nm. This reflects the amount of intracellular AOS produced.
The ratio below makes it possible to calculate the % protection against the production of intracellular AOSs for each product concentration tested (because the intensity of fluorescence or IF reflects the release of intracellular AOSs)
• Pre-incubation: 3 h • Number of tests=3 for all compounds. • Number of tests=18 for vit. E

[3] = tested on: membrane lipids, fibroblast line L929; experiment: TBARS test, lipid peroxidation after H2O2/Fe2+/Fe3+; assay type: cell-based, murin; conditions: 0.02 ng/ml, pretreated 16 hours
Source text: In order to evaluate membrane changes, we measured lipid peroxidation by in vitro assay of complexes between the products of lipid oxidation and thiobarbituric acid. These complexes are called TBARS (thiobarbituric acid reactive substances) and give the test its name: TBARS Test.
In order to mimic chemical oxidative stress, we treated a fibroblast line (L929) with a complex consisting of hydrogen peroxide (H2O2) and iron (Fe^2+/Fe^3+) thus reconstituting the Fenton reaction which is the source of oxygenated free radicals and particularly the hydroxyl radical (OH°) (D. A Vessey et al. 1992): H2O2+Fe^2+→OH°+OH^−+Fe^3+
The products were evaluated on a murin fibroblast line L929. Cells were pretreated with different concentrations of the product for 16 hours and were then stimulated with the H2O2/Fe^2+/Fe^3+ complex (200 μM−1 mM) for 1 hour. • Stock solutions: 100 mg/ml ethanol, 4° C. • Final solutions: 0.02 ng/ml.
Peroxidation of membrane lipids was analysed by measuring TBARS (Protocol ref. PLN°2, according to Morliere et al, 1991).
[…]. TBARS assays are therefore expressed in pmole/μg of protein. Proteins and TBARS are assayed in the intracellular medium.
Using the TBARS calculation in pmole/μg protein, we calculated the protective efficacy of various products against the oxidation of lipid membranes.
Four separate experiments were carried out. Several compounds were evaluated in the course of these experiments (the test only allows 10 molecules to be evaluated at one time). The compounds were evaluated several times and were chosen as a function of the results obtained in another test which also measured anti-radical activity (assay test for activated oxygen species).
The model used in this experiment (Fenton reaction) triggers considerable lipid peroxidation of the L929 fibroblasts. This massive release of the hydroxyl radical OH° thus generates oxidative stress in the cells, particularly in the membranes. However, in this type of oxidative reaction, the products resulting from lipid peroxidation are internalized in the cells and TBARS are therefore assayed in the intracellular medium.

transglutaminase 1 (TG1) = experiment: keratinocyte differentiation, real-time RT-PCR of transglutaminase 1 transcripts; assay type: cell-based, human; conditions: NHK, 48 hours
Procedure: (§1) Normal human keratinocytes (NHK) proliferate and differentiate in vitro, forming stratified layers which mimic the basal organisation of the skin. Extracellular calcium concentrations in excess of 0.1 mM initiate a cascade of genome and non-genome events which take the keratinocytes from a proliferative phase towards a differentiation phase. Keratinocyte differentiation can then be evaluated by studying the expression of several markers such as keratins 1 and 10, transglutaminase 1, desaturase DES2, involucrine, FATP4 and ABCG1 transporters. We therefore evaluated the effect of certain hydroxyalcene carboxylic acids in an in vitro culture model.
(§2) Normal human keratinocytes are isolated from skin explants. They are cultured in KSFM medium (Gibco) with a low calcium content (0.1 mM) containing 25 μg/ml of BPE (bovine pituitary extract) and […] of EGF (epithelium growth factor). 24 hours after culturing, differentiation is triggered by the addition of calcium (final concentration 1.2 mM). The active ingredients are added or not at the same time as calcium at concentrations of 100 and 1 μg/ml in order to determine whether or not they have a potentialising effect on differentiation. Cells were then analysed 48 hours after the addition of calcium and these products.
(§3) Total RNA was extracted under cold conditions from keratinocytes.
(§4) After reverse transcription of mRNA into cDNA, PCRs were made up in 96 well plates (iCycler quantitative PCR apparatus, BioRad). Expression of transcripts of transglutaminase, desaturase (DES2), ABCG1 and FATP4 were standardized with respect to the expression of reference genes (GAPDH, UBC, HPRT).

desaturase DES2 = experiment: keratinocyte differentiation, real-time RT-PCR of DES2 transcripts; assay type: cell-based, human; conditions: NHK, 48 hours
Procedure: as §1, §2, §3, §4

ABCG1 = experiment: keratinocyte differentiation, real-time RT-PCR of ABCG1 transcripts; assay type: cell-based, human; conditions: NHK, 48 hours
Procedure: as §1, §2, §3, §4

FATP4 = experiment: keratinocyte differentiation, real-time RT-PCR of FATP4 transcripts; assay type: cell-based, human; conditions: NHK, 48 hours
Procedure: as §1, §2, §3, §4

prostaglandin 6KF1α = experiment: production of prostaglandin 6KF1α by keratinocytes stimulated with calcium ionophore A23187 (ELISA); assay type: cell-based; conditions: 3 μg/ml, A23187 1 μm 5 hours
Procedure: A suspension of keratinocytes in DMEM 10% foetal calf serum was divided into 6 well plates (1.2. 106cells/wells) and incubated for 16 hours at 37° C. in a 5% CO2 atmosphere. The keratinocytes were then rinsed with PBS in order to eliminate non adhering cells then exposed to the products to be tested included in DMEM without foetal calf serum (which could interfere with the assay).
The concentration tested in culture was 3 μg/ml. This was retained as the test concentration after a preliminary evaluation test for cytotoxicity (neutral red) and is not cytotoxic.
For each treatment, three wells were tested. Cells were pre-incubated for 60 minutes with the products to be tested then a stimulating agent was added to stimulate the arachidonic acid cascade (calcium ionophore) which was added for 5 hours: calcium ionophore A23187 was used at a concentration of 1 μm.
After 5 hours in culture, the culture medium for each well was recovered, centrifuged at 3000 rpm and stored at −80° C.
The production of prostaglandin 6KF1α for each of the tests was measured using a EUROMEDEX Elisa Kit.
Results are expressed as the percentage activity/stimulated control.

Interleukin 8 = experiment: release of Interleukin 8 by keratinocytes NHK stimulated with PMA + calcium ionophore A23187 (ELISA); assay type: cell-based, human; conditions: 3 μg/ml, keratinocytes, PMA + A23187 6 hours
Procedure: In this study, carried out using 96 well plates, we evaluated the activity of hydroxyl alkine acids on the production of Interleukin 8 produced in the keratinocytes by phorbol ester PMA and calcium ionophore A23187.
A suspension of keratinocytes in supplemented KSFM was divided between 96 well plates (3.10^4 cells/wells) and incubated for 16 hours at 37° C. under an atmosphere of 5% CO2. The keratinocytes were then rinsed with PBS in order to eliminate non adhering cells then exposed to the products to be tested included in non supplemented KSFM (which could interfere with the assay).
The concentration tested in culture was 3 μg/ml. This was retained after a preliminary test to evaluate cytotoxicity (neutral red) and is not cytotoxic.
3 wells were used for each treatment. Cells were preincubated for 60 minutes with the products to be tested then stimulated, in parallel to negative controls without stimulant: Phorbol Myristate Acetate (PMA) 1 μm+Calcium ionophore (A23187) 0.1 μm.
Incubation for 6 hours at 37° C. in a humid air atmosphere containing 5% CO2.
The culture medium for each of the wells was recovered, centrifuged at 3000 rpm and stored at −80° C.
Cytokine assay: IL8 was assayed using the ELISA kit immunoenzyme method (immunotech).
The results are given as percentage activity/stimulated control.
The compounds according to the invention were evaluated in terms of anti-inflammatory activity on the release of Interleukin 8 by human keratinocytes NHK stimulated by phorbol ester PMA+calcium ionophore A23187.

Row | SMILES | inhibition at 0.0002 µg/mL [2] [%] | % membrane lipid protection, Mean [3] [%] | Induction Factor vs Control (CaCl2 1.2 mM) TG1 (transglutaminase 1 (TG1); 1 μg/ml) | Induction Factor vs Control (CaCl2 1.2 mM) TG1 (transglutaminase 1 (TG1); 100 μg/ml) | Induction Factor vs Control (CaCl2 1.2 mM) DES2 (desaturase DES2; 1 μg/ml) | Induction Factor vs Control (CaCl2 1.2 mM) DES2 (desaturase DES2; 100 μg/ml) | Induction Factor vs Control (CaCl2 1.2 mM) ABCG1 (ABCG1; 1 μg/ml) | Induction Factor vs Control (CaCl2 1.2 mM) ABCG1 (ABCG1; 100 μg/ml) | Induction Factor vs Control (CaCl2 1.2 mM) FATP4 (FATP4; 1 μg/ml) | Induction Factor vs Control (CaCl2 1.2 mM) FATP4 (FATP4; 100 μg/ml) | % inhibiting activity of evaluated molecules on the production of PG6KF1α Inflammation (prostaglandin 6KF1α) [%] | % inhibition of IL-8 release (Interleukin 8) | further results
1 | Oc1ccc(O)cc1 [hydroquinone] |  |  |  |  |  |  |  |  |  |  |  |  | inhibition at 1 µg/mL ([1]; 1 μg/ml): 60%
2 | O=C(O)C(F)=CCCCCCCCO [n=6, R=H, Rn=H, R1=F, 10-hydroxy-dec-2-fluoro-2 enoic acid] | 4 | 40.65 | 1.2 | 7.8 | 1.3 | 10.3 | 1.3 | 6.3 | 1.0 | 1.9 |  |  | inhibition at 20 pg/mL ([2]; 0.02 ng/ml): 15%; inhibition at 0.002 µg/mL ([2]; 2 ng/ml): 5%; inhibition at 0.02 µg/mL ([2]; 20 ng/ml): -9%
3 | O=C(O)/C=C/CCCCCCCO [n=6, R=H, Rn=H, R1=H, DHA] | 33 | 52.91 | 1.1 | 12.3 | 1.7 | 11.5 | 1.9 | 6.6 | 1.2 | 2.5 |  |  | 
4 | O=C(O)C(F)=CCCCCCCCCCO [n=8, R=H, Rn=H, R1=F, 12-hydroxy-dodeca-2-fluoro-2-enoic acid] |  |  |  |  |  |  |  |  |  |  | 44 | Non-active | 
5 | O=C(O)/C=C/CCCCCCCCCO [n=8, R=H, Rn=H, R1=H, 12-hydroxy-dodeca-2t-enoic acid] |  |  |  |  |  |  |  |  |  |  | 32 | Non-active | 
6 | O=C1O[C@H]([C@@H](O)CO)C(O)=C1O [vitamin C] |  |  |  |  |  |  |  |  |  |  |  |  | inhibition at 40 µg/mL ([1]; 40 μg/ml): 60%
